From ChEMBL document CHEMBL1153800, “Carbonic anhydrase inhibitors; fluorinated phenyl sulfamates show strong inhibitory activity and selectivity for the inhibition of the tumor-associated isozymes IX and XII over the cytosolic ones I and II” (Bioorg Med Chem Lett, 2009)

How the values were obtained:
[1] = molecular target: Carbonic anhydrase 1 (Homo sapiens) (UniProt P00915)
Description: Inhibition of human CA1 by stopped flow CO2 hydration assay

[2] = molecular target: Carbonic anhydrase 9 (Homo sapiens) (UniProt Q16790)
Description: Inhibition of tumor associated human recombinant CA9 catalytic domain by stopped flow CO2 hydration assay

[3] = molecular target: Carbonic anhydrase 12 (Homo sapiens) (UniProt O43570)
Sequence of Carbonic anhydrase 12 (Homo sapiens) (O43570 whole entry, the tested form may be a part): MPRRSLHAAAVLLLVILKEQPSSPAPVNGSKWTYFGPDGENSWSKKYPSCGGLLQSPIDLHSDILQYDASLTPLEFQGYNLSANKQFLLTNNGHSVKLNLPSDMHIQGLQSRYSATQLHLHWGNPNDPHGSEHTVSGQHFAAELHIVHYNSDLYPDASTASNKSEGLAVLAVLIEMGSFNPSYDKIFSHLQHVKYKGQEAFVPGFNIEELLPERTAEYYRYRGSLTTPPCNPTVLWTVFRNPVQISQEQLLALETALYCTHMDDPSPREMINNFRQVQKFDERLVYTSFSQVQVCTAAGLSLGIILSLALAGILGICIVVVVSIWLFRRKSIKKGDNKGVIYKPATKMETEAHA
Description: Inhibition of tumor associated human recombinant CA12 catalytic domain by stopped flow CO2 hydration assay

[4] = organism: Homo sapiens; experiment: Selectivity ratio of Ki for human recombinant CA9 catalytic domain to Ki for human CA2
[5] = molecular target: Carbonic anhydrase 2 (Homo sapiens) (UniProt P00918)
Description: Inhibition of human CA2 by stopped flow CO2 hydration assay

Sequence of Carbonic anhydrase 1 (Homo sapiens) (P00915 2-261 limits assumed): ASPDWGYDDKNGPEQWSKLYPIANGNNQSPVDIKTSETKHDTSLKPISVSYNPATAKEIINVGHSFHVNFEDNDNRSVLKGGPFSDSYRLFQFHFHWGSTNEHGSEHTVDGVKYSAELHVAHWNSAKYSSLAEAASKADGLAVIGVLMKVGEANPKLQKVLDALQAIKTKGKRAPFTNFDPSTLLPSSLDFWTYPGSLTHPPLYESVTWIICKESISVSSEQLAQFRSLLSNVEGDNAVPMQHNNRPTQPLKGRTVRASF

SMILES	Ki [1]	Ki [2]	Ki [3]	Ratio [4]	Ki [5]
NS(=O)(=O)Oc1ccccc1	2.1 nM	63 nM	56	–	–
NS(=O)(=O)Oc1ccc(F)cc1	75 nM	6.5 nM	3.9	11.4	74 nM
